Experimental data: PMC9592857, “Voltage dependence of the cannabinoid CB1 receptor” (Frontiers in Pharmacology, 2022)
Where two headings read alike, the source gives them in different places.

Tests used:
Type in all cases: cell-based
[1] = target: T1, GIRK channel (Homo sapiens, UniProt P48051+P48549); assay: Receptor-independent effect on GIRK channels in oocytes expressing the GIRK channel but not the CB1 receptor; settings: for effect of application on GIRK currents: 10 µM, oocyte expressing the GIRK channel only; for direct effect on the GIRK channel: oocytes without CB1 receptor, any membrane potential
T1 construct: expressed in transfected cells; host or cells: Xenopus laevis oocytes injected with cRNA
T1 sequence (P48549 1-501): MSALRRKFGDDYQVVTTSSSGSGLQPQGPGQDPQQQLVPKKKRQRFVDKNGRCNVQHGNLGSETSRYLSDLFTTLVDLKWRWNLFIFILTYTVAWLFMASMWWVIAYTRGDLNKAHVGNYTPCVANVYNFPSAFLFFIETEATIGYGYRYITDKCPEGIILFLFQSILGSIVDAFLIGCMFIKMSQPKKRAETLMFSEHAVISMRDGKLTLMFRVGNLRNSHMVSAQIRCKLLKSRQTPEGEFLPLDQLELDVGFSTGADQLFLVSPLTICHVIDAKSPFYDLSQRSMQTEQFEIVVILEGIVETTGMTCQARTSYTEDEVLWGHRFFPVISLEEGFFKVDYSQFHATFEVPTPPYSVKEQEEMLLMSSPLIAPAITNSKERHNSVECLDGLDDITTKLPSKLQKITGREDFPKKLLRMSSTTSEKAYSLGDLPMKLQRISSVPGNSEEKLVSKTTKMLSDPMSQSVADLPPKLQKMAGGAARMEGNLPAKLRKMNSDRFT
T1 sequence (P48051 1-423): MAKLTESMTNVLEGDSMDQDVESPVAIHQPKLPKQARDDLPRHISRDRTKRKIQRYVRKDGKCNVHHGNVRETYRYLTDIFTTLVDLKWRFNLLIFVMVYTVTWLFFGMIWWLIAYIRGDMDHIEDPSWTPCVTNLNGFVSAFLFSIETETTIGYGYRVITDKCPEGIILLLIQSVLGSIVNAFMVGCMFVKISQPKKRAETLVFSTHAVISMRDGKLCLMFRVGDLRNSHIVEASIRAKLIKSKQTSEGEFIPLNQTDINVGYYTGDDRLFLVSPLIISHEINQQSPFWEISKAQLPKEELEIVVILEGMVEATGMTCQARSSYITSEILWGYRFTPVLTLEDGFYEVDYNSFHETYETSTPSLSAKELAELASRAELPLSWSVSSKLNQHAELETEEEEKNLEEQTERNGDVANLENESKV
Description: Figure S1. […] (A) A representative recording from an oocyte expressing the GIRK channel. […] (B) Current -Voltage (I-V) curve of IK before (black) and after (red) the application of 2-AG. The oocytes were voltage clamped to -80 mV and the currents after depolarizing pulses to various holding potentials from –80 mV to +40 mV at 10 mV increments were measured. Data is mean ± SEM from 7 oocytes. The difference between the two conditions is not significant (paired t-test, p>0.11 for all voltages).
(§1) Figure S2. Effect of AEA on GIRK channels. (A) A representative recording from an oocyte expressing the GIRK channel. […] (B) Current-voltage I-V curve of IK before (black) and after (red) the application of AEA. The oocytes were voltage clamped to -80 mV and the currents after depolarizing pulses to various holding potentials from –80 mV to +40 mV at 10 mV increments were measured. Data is mean ± SEM from 7 oocytes. The difference between the two conditions is not significant (paired t-test, p>0.13 for all voltages).
as §1, with “S3.” for “S2.”, “THC” for “AEA”, “(B)” for “(B) Current-voltage”, “THC.” for “AEA.”, “5” for “7”, “p>0.23” for “p>0.13”

[2] = target: T2, CB1 receptor (Homo sapiens, UniProt P21554)
T2 construct: expressed in transfected cells; host or cells: Xenopus laevis oocytes injected with cRNA; plasmid was a gift of Ken Mackie

[3] = target: T2, CB1 receptor; settings: for mean time constant of deactivation: same oocyte at both potentials, 10 oocytes

T2 sequence (P21554 whole entry): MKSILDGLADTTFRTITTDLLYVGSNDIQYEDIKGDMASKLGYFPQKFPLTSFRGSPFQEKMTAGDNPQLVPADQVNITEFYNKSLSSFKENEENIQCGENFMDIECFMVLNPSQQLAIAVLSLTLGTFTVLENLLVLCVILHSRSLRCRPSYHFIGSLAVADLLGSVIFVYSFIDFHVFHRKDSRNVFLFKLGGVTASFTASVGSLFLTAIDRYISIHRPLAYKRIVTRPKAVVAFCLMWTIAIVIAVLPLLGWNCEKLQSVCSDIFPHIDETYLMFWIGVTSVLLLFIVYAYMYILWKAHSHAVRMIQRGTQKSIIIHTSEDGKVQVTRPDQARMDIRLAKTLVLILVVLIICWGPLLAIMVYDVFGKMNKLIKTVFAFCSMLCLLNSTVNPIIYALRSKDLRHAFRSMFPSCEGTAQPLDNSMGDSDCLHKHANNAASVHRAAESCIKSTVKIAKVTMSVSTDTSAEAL

| Compound | effect of application on GIRK currents [1] | direct effect on the GIRK channel [1] | enhancement of potency toward the CB1 receptor by depolarization ([2]; +40 mV versus -80 mV) | V50 (the voltage that shows half-maximal effect), Boltzmann fit ([2]; relative activation by 100 nM agonist, -80 mV to +40 mV) [mV] | mean time constant of deactivation ([3]; +40 mV) | dissociation time constant from the receptor (decay of GIRK current after washout) ([3]; -80 mV, both agonists in the same oocytes, n = 20, mean±SD) [s] | mean time constant of deactivation ([3]; -80 mV) |
| --- | --- | --- | --- | --- | --- | --- | --- |
| CCCCC/C=C\C/C=C\C/C=C\C/C=C\CCCC(=O)OC(CO)CO [2-AG, 2-Arachidonoylglycerol] | did not evoke GIRK currents or inhibited basal GIRK currents | do not have any direct effect | about 4 fold | −45 | 42.6 ± 19.8 | 30.4 ± 11.7 | 25.4 ± 14.9 |
| CCCCC/C=C\C/C=C\C/C=C\C/C=C\CCCC(=O)NCCO [AEA, anandamide] | did not evoke GIRK currents or inhibited basal GIRK currents | do not have any direct effect | – | – | – | – | – |
| (-)-Δ9-Tetrahydrocannabinol [THC] | did not evoke GIRK currents or inhibited basal GIRK currents | do not have any direct effect | – | – | – | – | – |
